# Test results taken from patent US20140221499A1, “NOVEL RODENT CONTROL AGENTS AND USES THEREOF” (priority 2011, published 2014).
# Tests used:
# mTAAR7b = biological target: T1, mTAAR7b (Mus musculus, UniProt Q5QD11); test: CRE-SEAP reporter gene assay in HEK293 cells transfected with mTAAR7b; assay type: cell-based; parameters: Full Taar coding regions were cloned into pcDNA3.1; expressed in transfected cells; host or cells: HEK293; settings: FIG. 11B, functional with or without 'Rho tag', EC50 ± s.e.m., 4-parameter Hill equation
# T1 sequence (Q5QD11 1-358): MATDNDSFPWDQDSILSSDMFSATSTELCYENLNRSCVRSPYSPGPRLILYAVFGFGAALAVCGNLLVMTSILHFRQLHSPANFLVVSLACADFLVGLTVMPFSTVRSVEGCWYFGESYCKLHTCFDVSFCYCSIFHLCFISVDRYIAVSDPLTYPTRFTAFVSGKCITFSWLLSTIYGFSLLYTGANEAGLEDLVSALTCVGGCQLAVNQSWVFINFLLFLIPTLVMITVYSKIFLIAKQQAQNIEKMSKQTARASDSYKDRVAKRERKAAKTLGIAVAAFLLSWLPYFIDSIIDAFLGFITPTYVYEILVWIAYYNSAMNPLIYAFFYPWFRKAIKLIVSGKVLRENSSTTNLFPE
# Experimental: (§1) FIG. 11 illustrates the dose-dependent responses of TAARs to amines. HEK293 cells were cotransfected with plasmids encoding CRE-SEAP and rTAARs (a) or mTAARs (b), incubated with concentrations of ligands indicated, and assayed for reporter activity (triplicates±s.d.). EC50 values (±s.e.m, bottom right) were calculated using SigmaPlot (Systat Software) and a 4-parameter Hill equation.
# Chemicals tested for the ability to activate mouse TAARs include those previously described (Liberles, S. D., and Buck, L. B. (2006) A second class of chemosensory receptors in the olfactory epithelium, Nature 442, 645-650), as well as the following mixes (5 μM of each indicated compounds). Mix 1: N,N-dimethyl-cyclohexylamine, N,N-dimethyl-phenylethylamine, creatinine, taurine. […]
# (§2) Full Taar coding regions were cloned into pcDNA3.1-(Invitrogen) with or without a 5′ DNA extension of 69 bp encoding the first 20 amino acids of bovine rhodopsin followed by a cloning linker ([…]). […] Fluorescence was measured on an EnVision plate reader (Perkin Elmer) and SEAP activity graphed as relative fluorescence of a phosphatase substrate.
# (§3) Here, we set out to identify agonists for additional mouse and rat TAARs. […] Transfected cells were incubated with test chemicals, and phosphatase activity was quantified with a fluorescent substrate as a reporter for TAAR activation. […]
# rTAAR8c = biological target: T2, rTAAR8c (Rattus norvegicus, UniProt Q923Y0); test: CRE-SEAP reporter gene assay in HEK293 cells transfected with rTAAR8c; assay type: cell-based; settings: FIG. 11A, functional with or without 'Rho tag', EC50 ± s.e.m., 4-parameter Hill equation
# T2 construct: Full Taar coding regions were cloned into pcDNA3.1; expressed in transfected cells; host or cells: HEK293
# T2 sequence (Q923Y0 1-344): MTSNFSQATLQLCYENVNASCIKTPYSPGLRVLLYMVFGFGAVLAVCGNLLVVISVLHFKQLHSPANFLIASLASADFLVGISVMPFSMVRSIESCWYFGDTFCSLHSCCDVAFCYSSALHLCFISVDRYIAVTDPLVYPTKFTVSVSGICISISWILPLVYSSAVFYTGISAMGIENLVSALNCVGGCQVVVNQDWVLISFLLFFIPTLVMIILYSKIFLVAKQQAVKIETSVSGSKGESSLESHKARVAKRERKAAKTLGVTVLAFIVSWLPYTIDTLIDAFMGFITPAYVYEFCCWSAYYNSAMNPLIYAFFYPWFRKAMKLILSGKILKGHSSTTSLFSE
# Experimental: as §1
# (§4) The following mixes (10 μM of each indicated compounds) were tested for their ability to activate rat TAARs. Mix 1: butylamine, dibutylamine, hexylamine. Mix 2: 2-aminopentane, isoamylamine, isobutylamine, isopropylamine. Mix 3: N,N-dimethylcyclohexylamine, 1-methylindole, tryptamine, phenylethylamine. Mix 4: indole, 1-methylpyrrolidine, 1-methylpiperidine, pyrrolidine. […]
# as §2, §3
# rTAAR9 = biological target: T3, rTAAR9 (Rattus norvegicus, UniProt Q923Y6); test: CRE-SEAP reporter gene assay in HEK293 cells transfected with rTAAR9; assay type: cell-based; settings: FIG. 11A, functional with or without 'Rho tag', EC50 ± s.e.m., 4-parameter Hill equation
# T3 construct: Full Taar coding regions were cloned into pcDNA3.1; expressed in transfected cells; host or cells: HEK293
# T3 sequence (Q923Y6 1-338): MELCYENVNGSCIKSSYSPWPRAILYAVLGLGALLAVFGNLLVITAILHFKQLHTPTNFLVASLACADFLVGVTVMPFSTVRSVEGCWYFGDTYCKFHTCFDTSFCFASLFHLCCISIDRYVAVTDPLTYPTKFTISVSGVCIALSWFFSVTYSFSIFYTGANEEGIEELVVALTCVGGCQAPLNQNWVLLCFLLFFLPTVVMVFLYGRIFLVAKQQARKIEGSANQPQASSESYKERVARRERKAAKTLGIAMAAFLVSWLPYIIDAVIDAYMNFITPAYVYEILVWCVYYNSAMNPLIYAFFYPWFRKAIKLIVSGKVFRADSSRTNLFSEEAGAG
# Experimental: as §1, §4, §2, §3
# rTAAR7h = biological target: T4, rTAAR7h (Rattus norvegicus, UniProt Q923Y4); test: CRE-SEAP reporter gene assay in HEK293 cells transfected with rTAAR7h; assay type: cell-based; parameters: Full Taar coding regions were cloned into pcDNA3.1; expressed in transfected cells; host or cells: HEK293; settings: FIG. 11A, functional with or without 'Rho tag', EC50 ± s.e.m., 4-parameter Hill equation
# T4 sequence (Q923Y4 1-358): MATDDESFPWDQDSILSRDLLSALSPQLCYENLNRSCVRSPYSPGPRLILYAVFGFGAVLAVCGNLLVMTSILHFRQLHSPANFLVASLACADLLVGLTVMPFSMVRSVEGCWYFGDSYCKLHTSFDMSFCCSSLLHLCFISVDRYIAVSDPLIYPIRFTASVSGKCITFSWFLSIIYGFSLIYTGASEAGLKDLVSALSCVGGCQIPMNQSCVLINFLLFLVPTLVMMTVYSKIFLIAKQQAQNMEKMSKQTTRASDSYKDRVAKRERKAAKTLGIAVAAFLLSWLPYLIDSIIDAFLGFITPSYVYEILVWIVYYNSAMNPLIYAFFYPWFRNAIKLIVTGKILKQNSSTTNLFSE
# Experimental: as §1, §4, §2, §3
# TAAR5 = biological target: T5, TAAR5 (Mus musculus, UniProt Q5QD14); settings: cited from earlier work
# T5 sequence (Q5QD14 1-337): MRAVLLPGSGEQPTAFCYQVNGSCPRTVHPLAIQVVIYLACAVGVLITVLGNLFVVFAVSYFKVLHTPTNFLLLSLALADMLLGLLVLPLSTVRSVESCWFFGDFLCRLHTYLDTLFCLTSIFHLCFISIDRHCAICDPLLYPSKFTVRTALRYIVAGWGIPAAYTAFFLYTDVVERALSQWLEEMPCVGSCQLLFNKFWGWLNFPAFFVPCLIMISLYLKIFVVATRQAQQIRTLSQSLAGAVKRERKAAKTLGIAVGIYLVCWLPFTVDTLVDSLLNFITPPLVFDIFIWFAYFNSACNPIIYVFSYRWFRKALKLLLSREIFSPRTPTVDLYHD
smiles,measurement,setting,value
"CCCCN(C)C [N,N-DIMETHYLBUTYLAMINE, N,N-dimethylbutylamine]",EC50,mTAAR7b,20.1 ± 8.9 µM
CN1CCCCC1 [1-methylpiperidine],EC50,rTAAR8c,0.08 ± 0.02 µM
same,EC50,rTAAR9,18.3 ± 0.4 µM
"CCCCCCCCN(C)C [N,N-DIMETHYLOCTYLAMINE, N,N-dimethyloctylamine]",EC50,rTAAR7h,12.7 ± 6.2 µM
"CN(C)C [Trimethylamine, trimethylamine]",TAAR5 activation,TAAR5,activates TAAR5
